Measured values taken from ChEMBL document CHEMBL1201862, “PubChem BioAssay data set” (2004).
Activity calls are given as the source filed them. Unless noted, no cut-off for these calls is given here.

Assays:
[1] = target: T1, Tyrosine-protein phosphatase non-receptor type 7 (Homo sapiens, UniProt P35236); assay: redox-dependent HePTP inhibition, mechanism study, biochemical, fluorescence (AID 2068); type: functional
T1 sequence (P35236 whole entry): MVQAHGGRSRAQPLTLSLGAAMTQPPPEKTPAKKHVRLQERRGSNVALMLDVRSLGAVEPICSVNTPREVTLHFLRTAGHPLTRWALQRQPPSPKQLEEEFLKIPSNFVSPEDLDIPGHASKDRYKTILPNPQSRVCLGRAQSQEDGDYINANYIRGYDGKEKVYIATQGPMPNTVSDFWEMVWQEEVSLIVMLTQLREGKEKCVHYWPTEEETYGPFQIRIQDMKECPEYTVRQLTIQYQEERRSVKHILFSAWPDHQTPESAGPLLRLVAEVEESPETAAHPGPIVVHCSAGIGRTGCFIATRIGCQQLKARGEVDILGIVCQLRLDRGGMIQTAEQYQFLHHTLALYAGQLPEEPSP

[2] = target: G-protein coupled receptor 55 (Homo sapiens, UniProt Q9Y2T6); assay: SAR Analysis of Selective Antagonists of GPR55 using an Image-Based Assay - Set 3. [Related pubchem assays (depositor defined):AID2058, AID2079]; type: functional
Chain of G-protein coupled receptor 55 (Q9Y2T6 whole entry): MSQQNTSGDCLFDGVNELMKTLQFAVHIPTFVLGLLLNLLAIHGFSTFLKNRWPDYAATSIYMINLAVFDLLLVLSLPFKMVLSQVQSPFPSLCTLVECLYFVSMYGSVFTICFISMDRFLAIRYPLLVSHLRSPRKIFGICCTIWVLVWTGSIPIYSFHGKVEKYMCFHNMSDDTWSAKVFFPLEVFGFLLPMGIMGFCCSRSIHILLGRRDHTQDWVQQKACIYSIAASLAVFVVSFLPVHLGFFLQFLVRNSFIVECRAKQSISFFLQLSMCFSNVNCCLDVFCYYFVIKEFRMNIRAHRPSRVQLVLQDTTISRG

[3] = target: T2, G-protein coupled receptor 35 (Homo sapiens, UniProt Q9HC97); assay: SAR analysis of Antagonists of the GPR35 Receptor using an Image-Based Assay - Set 5. [Related pubchem assays (depositor defined):AID2058, AID2079]; type: functional
T2 sequence (Q9HC97 whole entry): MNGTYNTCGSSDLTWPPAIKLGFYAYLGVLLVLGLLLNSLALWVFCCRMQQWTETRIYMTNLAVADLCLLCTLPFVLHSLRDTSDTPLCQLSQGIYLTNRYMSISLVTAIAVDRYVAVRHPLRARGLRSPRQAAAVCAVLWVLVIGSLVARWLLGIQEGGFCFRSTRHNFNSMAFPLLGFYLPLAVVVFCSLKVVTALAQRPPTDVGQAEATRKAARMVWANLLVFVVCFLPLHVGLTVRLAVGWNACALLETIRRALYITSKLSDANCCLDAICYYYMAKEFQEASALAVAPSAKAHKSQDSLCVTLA

[4] = target: T2, G-protein coupled receptor 35; assay: SAR Analysis for the identification of Selective Antagonists of ERK1/2 Activity in GPR35-Overexpressing U2OS Cells - Set 2. [Related pubchem assays (depositor defined):AID2058, AID2079]; type: functional, cell-based
Coagulation factor XII [5] = target: T3, Coagulation factor XII (Homo sapiens, UniProt P00748); assay: Factor XIIa Dose Response Confirmation from Single Well HTS. [Related pubchem assays (depositor defined):AID701]; type: functional
T3 sequence (P00748 whole entry): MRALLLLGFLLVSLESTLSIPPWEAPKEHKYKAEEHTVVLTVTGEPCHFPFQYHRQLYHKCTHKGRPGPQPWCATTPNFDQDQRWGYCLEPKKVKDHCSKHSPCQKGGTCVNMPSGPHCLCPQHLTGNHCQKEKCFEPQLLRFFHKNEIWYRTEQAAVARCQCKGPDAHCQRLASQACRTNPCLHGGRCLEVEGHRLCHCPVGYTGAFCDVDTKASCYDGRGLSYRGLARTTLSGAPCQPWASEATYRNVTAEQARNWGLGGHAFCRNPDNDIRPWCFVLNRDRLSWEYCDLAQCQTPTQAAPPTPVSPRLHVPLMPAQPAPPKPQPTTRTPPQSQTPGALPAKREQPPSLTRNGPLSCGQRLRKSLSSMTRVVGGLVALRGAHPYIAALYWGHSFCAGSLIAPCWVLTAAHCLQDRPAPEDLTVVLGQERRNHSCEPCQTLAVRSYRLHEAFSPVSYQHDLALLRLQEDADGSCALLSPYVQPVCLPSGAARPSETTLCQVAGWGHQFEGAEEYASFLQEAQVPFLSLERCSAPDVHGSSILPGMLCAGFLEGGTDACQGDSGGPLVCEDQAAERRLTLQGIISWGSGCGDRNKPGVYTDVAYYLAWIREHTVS

Coagulation factor XII [6] = target: T3, Coagulation factor XII; assay: FXIIa inhibitor potency, concentration-response, biochemical (AID 716); type: functional
Hexokinase HKDC1 = target: T4, Hexokinase HKDC1 (Homo sapiens, UniProt Q2TB90); assay: HKDC1 hexokinase inhibitors, dose response, biochemical, W721R variant (AID 504729); type: functional
T4 sequence (Q2TB90 whole entry): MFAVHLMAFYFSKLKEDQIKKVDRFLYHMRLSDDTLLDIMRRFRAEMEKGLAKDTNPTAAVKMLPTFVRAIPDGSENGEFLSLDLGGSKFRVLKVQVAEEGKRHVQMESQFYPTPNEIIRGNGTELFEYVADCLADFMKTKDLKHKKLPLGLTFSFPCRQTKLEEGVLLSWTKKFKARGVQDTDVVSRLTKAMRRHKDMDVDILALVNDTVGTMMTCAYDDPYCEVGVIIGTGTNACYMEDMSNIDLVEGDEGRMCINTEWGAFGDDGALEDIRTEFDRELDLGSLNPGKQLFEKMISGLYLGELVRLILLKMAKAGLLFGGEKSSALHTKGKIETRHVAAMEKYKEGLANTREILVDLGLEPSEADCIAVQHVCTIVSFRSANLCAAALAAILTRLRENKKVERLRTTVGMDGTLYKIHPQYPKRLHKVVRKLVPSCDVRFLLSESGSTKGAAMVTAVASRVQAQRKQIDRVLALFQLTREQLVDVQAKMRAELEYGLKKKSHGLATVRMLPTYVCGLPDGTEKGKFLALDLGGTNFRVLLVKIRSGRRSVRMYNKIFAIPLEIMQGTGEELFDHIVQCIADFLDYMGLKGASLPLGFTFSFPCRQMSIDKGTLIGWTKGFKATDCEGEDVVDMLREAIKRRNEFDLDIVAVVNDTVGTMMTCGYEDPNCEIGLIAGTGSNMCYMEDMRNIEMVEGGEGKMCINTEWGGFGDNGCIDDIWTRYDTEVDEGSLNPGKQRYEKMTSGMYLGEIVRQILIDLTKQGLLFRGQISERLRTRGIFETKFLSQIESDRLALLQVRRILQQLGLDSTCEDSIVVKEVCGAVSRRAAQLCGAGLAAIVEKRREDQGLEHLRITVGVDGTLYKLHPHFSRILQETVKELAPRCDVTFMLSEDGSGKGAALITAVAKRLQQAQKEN

[7] = target: T5, Rac GTPase-activating protein 1 (Homo sapiens, UniProt Q9H0H5); assay: MgcRacGAP GTPase-activating activity inhibitors, confirmation, biochemical, ADP Hunter fluorescence, primary and confirmatory (AID 624330); type: functional
T5 sequence (Q9H0H5 whole entry): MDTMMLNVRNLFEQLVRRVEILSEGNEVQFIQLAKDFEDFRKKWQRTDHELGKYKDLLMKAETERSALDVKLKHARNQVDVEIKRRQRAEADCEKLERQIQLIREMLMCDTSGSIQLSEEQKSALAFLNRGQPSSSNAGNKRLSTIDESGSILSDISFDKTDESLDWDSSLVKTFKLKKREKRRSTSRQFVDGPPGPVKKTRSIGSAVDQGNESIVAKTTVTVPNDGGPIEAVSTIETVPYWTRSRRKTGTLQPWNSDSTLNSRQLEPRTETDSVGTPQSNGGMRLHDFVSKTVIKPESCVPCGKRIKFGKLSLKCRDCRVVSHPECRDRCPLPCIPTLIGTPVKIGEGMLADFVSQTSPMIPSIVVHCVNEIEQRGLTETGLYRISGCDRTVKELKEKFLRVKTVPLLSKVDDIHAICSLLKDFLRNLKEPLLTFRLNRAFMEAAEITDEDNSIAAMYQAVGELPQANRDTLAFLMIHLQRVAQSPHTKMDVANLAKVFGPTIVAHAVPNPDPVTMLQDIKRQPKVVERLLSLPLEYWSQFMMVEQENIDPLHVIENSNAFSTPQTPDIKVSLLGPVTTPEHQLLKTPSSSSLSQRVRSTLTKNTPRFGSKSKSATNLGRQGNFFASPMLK

Nonstructural protein 1 = Nonstructural protein 1 (Influenza A virus, UniProt Q194T2); type: functional, Influenza A virus (A/California/07/2009(H1N1))
Chain of Nonstructural protein 1 (Q194T2 whole entry): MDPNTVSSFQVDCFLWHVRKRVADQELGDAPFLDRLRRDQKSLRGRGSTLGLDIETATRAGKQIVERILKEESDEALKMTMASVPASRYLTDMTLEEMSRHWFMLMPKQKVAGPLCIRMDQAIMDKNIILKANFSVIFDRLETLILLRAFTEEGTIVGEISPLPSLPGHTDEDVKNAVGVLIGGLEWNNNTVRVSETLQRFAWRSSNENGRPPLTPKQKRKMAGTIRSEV

Hexokinase-1 = target: T6, Hexokinase-1 (Homo sapiens, UniProt P19367); assay: hexokinase 1 activators, dose response, selectivity assay for HKDC1 activator project, biochemical (AID 504762); type: functional
T6 sequence (P19367 whole entry): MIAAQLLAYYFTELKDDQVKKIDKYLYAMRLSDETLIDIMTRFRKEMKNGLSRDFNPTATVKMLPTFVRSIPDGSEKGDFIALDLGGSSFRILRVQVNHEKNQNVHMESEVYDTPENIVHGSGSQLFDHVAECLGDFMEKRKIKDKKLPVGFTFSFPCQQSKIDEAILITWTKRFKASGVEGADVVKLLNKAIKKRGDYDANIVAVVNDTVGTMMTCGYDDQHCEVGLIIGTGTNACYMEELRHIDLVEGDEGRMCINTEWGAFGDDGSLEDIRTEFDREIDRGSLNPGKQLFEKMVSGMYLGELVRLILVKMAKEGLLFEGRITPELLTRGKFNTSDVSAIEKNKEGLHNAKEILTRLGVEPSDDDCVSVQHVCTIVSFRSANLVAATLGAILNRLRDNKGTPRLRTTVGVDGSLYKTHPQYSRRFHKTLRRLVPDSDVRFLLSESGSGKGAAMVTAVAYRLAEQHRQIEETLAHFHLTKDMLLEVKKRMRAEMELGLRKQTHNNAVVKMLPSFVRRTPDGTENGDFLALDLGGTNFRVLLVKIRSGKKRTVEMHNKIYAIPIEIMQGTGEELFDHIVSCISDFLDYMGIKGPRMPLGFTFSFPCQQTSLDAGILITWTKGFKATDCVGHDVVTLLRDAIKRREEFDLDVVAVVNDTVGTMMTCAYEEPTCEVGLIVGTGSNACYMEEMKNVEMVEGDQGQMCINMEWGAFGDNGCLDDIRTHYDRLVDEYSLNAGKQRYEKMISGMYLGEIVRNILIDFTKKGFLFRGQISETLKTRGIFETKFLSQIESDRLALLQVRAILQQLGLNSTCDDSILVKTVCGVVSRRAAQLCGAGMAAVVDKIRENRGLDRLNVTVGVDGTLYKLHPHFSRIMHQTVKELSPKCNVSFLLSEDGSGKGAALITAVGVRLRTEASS

In the case of `O=C(Nc1ccc2nc(-c3ccco3)c(-c3ccco3)nc2c1)NC1CCCC1`, the IC50 [1] is reported as 1.1 µM (active).

`COC(=O)c1cnn(-c2ccc(Cl)cc2)c1/C=N/NC(=S)Nc1ccccc1` was tested, and the IC50 [2] was > 32 µM (inactive), the IC50 [3] was 211 nM (active) and the IC50 [4] was 21.8 µM (inactive).

`Cc1ccc(C(=O)n2nnc3ccccc32)cc1` was tested, and the IC50 (Coagulation factor XII [5]) was 2.29 µM (active).

With `CCCCC1(CC)C(=O)NC(=O)N=C1Nc1ccc(OC)cc1` (stereo not given) the IC50 (Coagulation factor XII [6]) was > 50 µM (inactive).

For `Oc1ccc(/C=N/NC(=S)Nc2cccnc2)c(O)c1`, the IC50 (Hexokinase HKDC1) was > 80 µM (inactive), the IC50 [7] was 40.5 µM (active) and the IC50 (Nonstructural protein 1) was 1.82 µM (active). For the same compound, the EC50 (Hexokinase-1) was > 80 µM (inactive).
